According to ChEMBL document CHEMBL1133700, “Chiral nonsteroidal affinity ligands for the androgen receptor. 1. Bicalutamide analogues bearing electrophilic groups in the B aromatic ring” (J Med Chem, 2000):

The compounds below were run against T1, Androgen receptor (Rattus norvegicus, UniProt P15207) (assay: Binding Affinity towards Rat Androgen Receptor was determined using [3H]- mibolerone as radioligand.).
T1 sequence (P15207 whole entry): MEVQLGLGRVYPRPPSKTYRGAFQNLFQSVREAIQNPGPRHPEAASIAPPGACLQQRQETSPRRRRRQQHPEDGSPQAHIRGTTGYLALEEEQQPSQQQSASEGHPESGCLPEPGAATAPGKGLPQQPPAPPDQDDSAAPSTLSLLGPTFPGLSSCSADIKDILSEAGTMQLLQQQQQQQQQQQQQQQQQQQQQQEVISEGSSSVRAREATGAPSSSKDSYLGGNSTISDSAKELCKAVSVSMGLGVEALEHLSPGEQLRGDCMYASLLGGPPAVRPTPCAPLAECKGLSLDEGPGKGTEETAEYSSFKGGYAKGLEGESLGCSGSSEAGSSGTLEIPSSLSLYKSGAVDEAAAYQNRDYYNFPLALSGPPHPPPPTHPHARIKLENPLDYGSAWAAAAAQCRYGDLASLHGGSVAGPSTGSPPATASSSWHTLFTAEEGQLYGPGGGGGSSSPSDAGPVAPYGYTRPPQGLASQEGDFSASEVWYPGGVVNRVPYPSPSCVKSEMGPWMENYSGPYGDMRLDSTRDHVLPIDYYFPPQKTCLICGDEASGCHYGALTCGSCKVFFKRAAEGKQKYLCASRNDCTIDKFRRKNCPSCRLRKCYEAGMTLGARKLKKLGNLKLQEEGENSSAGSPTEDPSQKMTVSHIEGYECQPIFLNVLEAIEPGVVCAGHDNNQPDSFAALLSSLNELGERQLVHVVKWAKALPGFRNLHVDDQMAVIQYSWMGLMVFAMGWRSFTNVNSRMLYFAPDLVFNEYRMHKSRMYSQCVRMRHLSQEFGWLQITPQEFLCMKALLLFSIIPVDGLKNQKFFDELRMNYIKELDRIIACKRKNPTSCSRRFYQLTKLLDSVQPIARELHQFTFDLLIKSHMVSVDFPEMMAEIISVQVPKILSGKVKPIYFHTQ

Compound | Ki [nM]
C[C@](O)(CS(=O)(=O)c1cccc(NC(=O)CCl)c1)C(=O)Nc1ccc(C#N)c(C(F)(F)F)c1 | 130
C[C@](O)(CSc1cccc(NC(=O)CBr)c1)C(=O)Nc1ccc(C#N)c(C(F)(F)F)c1 | > 1000
C[C@](O)(CSc1cccc(NC(=O)CCl)c1)C(=O)Nc1ccc(C#N)c(C(F)(F)F)c1 | > 1000
C[C@](O)(CS(=O)(=O)c1ccc(N=C=S)cc1)C(=O)Nc1ccc(C#N)c(C(F)(F)F)c1 | 41
